{
  "source": "patent US7034036B2",
  "about": "“Inhibitors of ABC drug transporters at the blood-brain barrier” (Pain Therapeutics, Inc., priority 2000, dated 2006)",
  "key": {"PGP1a [1]": {"target": "PGP1a (Homo sapiens, UniProt P08183)", "sequence (P08183 whole entry)": "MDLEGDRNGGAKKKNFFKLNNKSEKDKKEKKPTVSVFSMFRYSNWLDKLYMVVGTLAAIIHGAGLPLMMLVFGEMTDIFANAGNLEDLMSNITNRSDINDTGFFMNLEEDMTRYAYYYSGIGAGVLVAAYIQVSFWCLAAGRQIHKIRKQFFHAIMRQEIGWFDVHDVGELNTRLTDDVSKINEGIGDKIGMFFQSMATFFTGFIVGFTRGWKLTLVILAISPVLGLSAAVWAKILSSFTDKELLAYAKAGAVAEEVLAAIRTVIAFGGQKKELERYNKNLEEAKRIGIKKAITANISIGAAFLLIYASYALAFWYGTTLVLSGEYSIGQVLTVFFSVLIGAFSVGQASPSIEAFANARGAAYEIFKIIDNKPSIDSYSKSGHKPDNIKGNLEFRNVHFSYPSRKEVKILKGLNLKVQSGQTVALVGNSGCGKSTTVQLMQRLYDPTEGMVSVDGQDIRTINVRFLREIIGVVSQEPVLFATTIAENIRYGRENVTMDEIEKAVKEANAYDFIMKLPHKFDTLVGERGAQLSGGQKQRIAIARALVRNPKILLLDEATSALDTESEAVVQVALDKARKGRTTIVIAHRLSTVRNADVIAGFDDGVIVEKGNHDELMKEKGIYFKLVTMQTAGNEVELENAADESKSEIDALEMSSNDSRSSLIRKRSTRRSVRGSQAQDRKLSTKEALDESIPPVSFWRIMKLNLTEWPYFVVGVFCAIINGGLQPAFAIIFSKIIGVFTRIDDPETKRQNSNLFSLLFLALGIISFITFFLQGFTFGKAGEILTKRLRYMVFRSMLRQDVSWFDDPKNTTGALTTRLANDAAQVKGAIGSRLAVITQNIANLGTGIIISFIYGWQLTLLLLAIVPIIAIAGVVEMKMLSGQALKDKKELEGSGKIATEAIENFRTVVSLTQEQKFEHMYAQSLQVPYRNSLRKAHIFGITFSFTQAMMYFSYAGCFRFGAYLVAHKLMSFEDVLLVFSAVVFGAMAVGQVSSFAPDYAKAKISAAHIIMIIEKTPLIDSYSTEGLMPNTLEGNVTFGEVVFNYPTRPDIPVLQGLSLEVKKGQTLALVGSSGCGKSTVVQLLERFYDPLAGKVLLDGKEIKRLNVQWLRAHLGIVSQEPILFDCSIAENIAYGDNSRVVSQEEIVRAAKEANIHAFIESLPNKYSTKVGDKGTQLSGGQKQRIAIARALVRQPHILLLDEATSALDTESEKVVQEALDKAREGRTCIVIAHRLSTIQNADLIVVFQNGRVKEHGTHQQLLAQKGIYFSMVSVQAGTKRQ", "assay": "Biological activity of exemplary compounds (Activity 1 high affinity site, Activity 2 low affinity site)", "settings": "for Activity 2: high capacity, low affinity binding site; for Activity 1: low capacity, high affinity binding site"}, "PGP1a [2]": {"system": "PGP1a", "assay": "Vanadate-sensitive PGP ATPase activity in PGP membranes", "assay_type": "biochemical", "settings": "for Inhibition of the ATPase associated with PGP1a: semi-quantitative assay", "method": "The test substances were incubated in the membranes and supplemented with MgATP, with and without sodium orthovanadate present. Orthovanadate inhibits PGP by trapping MgADP in the nucleotide binding site. Thus, the ATPase activity measured in the presence of orthovanadate represents non-PGP ATPase activity and was subtracted from the activity generated without orthovanadate to yield vanadate-sensitive ATPase activity.\nATPase assays were conducted in 96-well microtiter plates. A 0.06 ml reaction mixture containing 40 μg PGP membranes, test substance, and 4 mM MgATP, in buffer containing 50 mM Tris-MES, 2 mM EGTA, 50 mM KCl, 2 mM dithiothreitol, and 5 mM sodium azide, plus organic solvent was incubated at 37° C. for 20 minutes. […] Identical reaction mixtures containing 100 μM sodium orthovanadate were assayed in parallel. The reactions were stopped by the addition of 30 μl of 10% SDS+Antifoam A. The incubations were followed with addition of 200 μl of 35 mM Ammonium Molybdate in 15 mM Zinc Acetate:10% Ascorbic Acid (1:4) and incubated for an additional 20 minutes at 37° C. Additionally, 0.06 ml aliquots of potassium phosphate standards prepared in the buffer described above, were incubated in the plates containing the test and control substances, with SDS and detection reagent added. The liberation of inorganic phosphate was detected by its absorbance at 800 nm and quantitated by comparing the absorbance to a phosphate standard curve. The concentration dependence of the PGP was analyzed for evidence of saturation of PGP-ATPase activity, and apparent kinetic parameters were calculated by non-linear regression."}, "human PGP": {"target": "human PGP (Homo sapiens, UniProt P08183)", "sequence (P08183 whole entry)": "as above", "assay": "Inhibition of PGP-mediated [3H]-digoxin transport in LLC-PK1 cell monolayers expressing human PGP cDNA (15B-J)", "settings": "for % Inhibition of Digoxin Transport: 5 μM [3H]-digoxin, 90 min"}, "mice [3]": {"system": "mice", "assay": "Tail flick anti-nociception, naltrexone given with morphine from day 1 (Groups C, D, combined analysis)", "assay_type": "in vivo", "design": "Enhancement of Latency (tail flick) / Enhancement of Latency by Naltrexone (tail flick): unit not given here", "settings": "Group 1: morphine 3 mg/kg only", "method": "In a third series of experiments, 40 male mice were randomized into 5 groups of eight. All mice were administered single 3 mg/kg morphine daily (b.i.d.), beginning on Day 1.\nIn a final series of experiments, 40 female mice were randomized into 5 groups of eight. All mice were administered single 3 mg/kg morphine daily (b.i.d.), beginning on Day 1."}, "mice [4]": {"system": "mice", "assay": "Tail flick anti-nociception, naltrexone begun at day 6 in mice dosed daily with morphine (Groups A, B)", "assay_type": "in vivo", "settings": "for Adaptation to repeated dosing (tail flick latency, words): Group 1, morphine 3 mg/kg daily alone", "method": "40 male mice were randomized into 5 groups of eight. All mice were administered single 3 mg/kg morphine daily (b.i.d.), beginning on Day 1.\nIn a second series of experiments, 40 female mice were randomized into 5 groups of eight. All mice were administered single 3 mg/kg morphine daily (b.i.d.), beginning on Day 1.\n3 mg/kg of morphine was administered as a single bolus dose to each mouse on group 1 on a daily basis. Mice in Group 2 were also administered 3 mg/kg morphine daily."}, "mice [5]": {"system": "mice", "assay": "Tolerance to oxycodone in mice, parallel experiments", "assay_type": "in vivo"}, "[6]": {"settings": "male mice, 0.1 mg/kg oxycodone plus 1 ng/kg naltrexone, 1 ng/kg nalmefene or 1 pg/kg nor-BNI"}},
  "note": "Entries after “also recorded” stand apart in the source; their conditions may differ.",
  "data": [
    {"smiles": "C=CCN1CC[C@]23c4c5ccc(O)c4O[C@H]2C(=O)CC[C@@]3(O)[C@H]1C5", "note": "[Naloxone, naloxone]", "values": [
      {"measurement": "Activity 2", "setting": "PGP1a [1]", "result": 30, "unit": "µM"},
      {"measurement": "Activity 1", "setting": "PGP1a [1]", "result": 1.0, "unit": "nM"},
      {"measurement": "Vanadate-sensitive ATPase Activity", "setting": "PGP1a [2]; 1 μM", "result": 0.4, "unit": "nmol/mg/min"},
      {"measurement": "Vanadate-sensitive ATPase Activity", "setting": "PGP1a [2]; 3 μM", "result": 1.7, "unit": "nmol/mg/min"},
      {"measurement": "Vanadate-sensitive ATPase Activity", "setting": "PGP1a [2]; 10 μM", "result": 2, "unit": "nmol/mg/min"},
      {"measurement": "Vanadate-sensitive ATPase Activity", "setting": "PGP1a [2]; 30 μM", "result": 1.9, "unit": "nmol/mg/min"},
      {"measurement": "Vanadate-sensitive ATPase Activity", "setting": "PGP1a [2]; 100 μM", "result": 1.8, "unit": "nmol/mg/min"},
      {"measurement": "Inhibition of the ATPase associated with PGP1a", "setting": "PGP1a [2]", "result": "shown to inhibit; also recorded: only weakly inhibited"},
      {"measurement": "Ketoconazole Normalized % Inhibition of Digoxin Transport", "setting": "human PGP; 0.0001 μM nominal, normalized to 25 μM ketoconazole", "result": 6.2, "unit": "%"},
      {"measurement": "Ketoconazole Normalized % Inhibition of Digoxin Transport", "setting": "human PGP; 0.0003 μM nominal, normalized to 25 μM ketoconazole", "result": 8.4, "unit": "%"},
      {"measurement": "Ketoconazole Normalized % Inhibition of Digoxin Transport", "setting": "human PGP; 0.001 μM nominal, normalized to 25 μM ketoconazole", "result": 10, "unit": "%"},
      {"measurement": "Ketoconazole Normalized % Inhibition of Digoxin Transport", "setting": "human PGP; 0.01 μM nominal, normalized to 25 μM ketoconazole", "result": "−4.5", "unit": "%"},
      {"measurement": "Ketoconazole Normalized % Inhibition of Digoxin Transport", "setting": "human PGP; 0.03 μM nominal, normalized to 25 μM ketoconazole", "result": 5.7, "unit": "%"},
      {"measurement": "Ketoconazole Normalized % Inhibition of Digoxin Transport", "setting": "human PGP; 0.1 μM nominal, normalized to 25 μM ketoconazole", "result": "−2.7", "unit": "%"},
      {"measurement": "Ketoconazole Normalized % Inhibition of Digoxin Transport", "setting": "human PGP; 1 μM nominal, normalized to 25 μM ketoconazole", "result": 7.8, "unit": "%"},
      {"measurement": "Inhibition of digoxin transport", "setting": "human PGP; at the 30 and 100 μM concentrations", "result": "exhibited inhibitory behavior"},
      {"measurement": "Inhibition of digoxin transport", "setting": "human PGP; concentrations below 30 μM, not concentration-dependent", "result": "slightly inhibited"},
      {"measurement": "Ketoconazole Normalized % Inhibition of Digoxin Transport", "setting": "human PGP; nominal 0.03 μM as printed in the fourth line (measured […])", "result": 5.7, "unit": "%"}
    ]},
    {"smiles": "CN1CC[C@]23c4c5ccc(O)c4O[C@H]2[C@@H](O)C=C[C@H]3[C@H]1C5", "note": "[morphine]", "values": [
      {"measurement": "Enhancement of Latency (tail flick)", "setting": "mice [3]; Table 15, combined analysis (title prints Female Mice), Day 1", "result": 7.4},
      {"measurement": "Enhancement of Latency (tail flick)", "setting": "mice [3]; Table 15, combined analysis (title prints Female Mice), Day 3", "result": 3.0},
      {"measurement": "Enhancement of Latency (tail flick)", "setting": "mice [3]; Table 15, combined analysis (title prints Female Mice), Day 5", "result": "−1.2"},
      {"measurement": "Enhancement of Latency (tail flick)", "setting": "mice [3]; Table 15, combined analysis (title prints Female Mice), Day 8", "result": "−3.7"},
      {"measurement": "Enhancement of Latency (tail flick)", "setting": "mice [3]; Table 15, combined analysis (title prints Female Mice), Day 10", "result": "−3.3"},
      {"measurement": "Enhancement of Latency (tail flick)", "setting": "mice [3]; female mice, Day 1", "result": 5.4},
      {"measurement": "Enhancement of Latency (tail flick)", "setting": "mice [3]; female mice, Day 3", "result": "−0.1"},
      {"measurement": "Enhancement of Latency (tail flick)", "setting": "mice [3]; female mice, Day 5", "result": "−4.1"},
      {"measurement": "Enhancement of Latency (tail flick)", "setting": "mice [3]; female mice, Day 7", "result": "−5.0"},
      {"measurement": "Enhancement of Latency (tail flick)", "setting": "mice [3]; female mice, Day 10", "result": "−3.3"},
      {"measurement": "Enhancement of Latency (tail flick)", "setting": "mice [3]; female mice, Day 11, single bolus 10 μg/kg naltrexone to every mouse", "result": "−5.2"},
      {"measurement": "Enhancement of Latency (tail flick)", "setting": "mice [3]; male mice, Day 1", "result": 9.3},
      {"measurement": "Enhancement of Latency (tail flick)", "setting": "mice [3]; male mice, Day 3", "result": 6.2},
      {"measurement": "Enhancement of Latency (tail flick)", "setting": "mice [3]; male mice, Day 5", "result": 1.6},
      {"measurement": "Enhancement of Latency (tail flick)", "setting": "mice [3]; male mice, Day 8", "result": "−2.3"},
      {"measurement": "Enhancement of Latency (tail flick)", "setting": "mice [3]; male mice, Day 10", "result": "−3.3"},
      {"measurement": "Enhancement of Latency (tail flick)", "setting": "mice [3]; male mice, Day 12, single bolus 10 μg/kg naltrexone to every mouse", "result": "−4.3"},
      {"measurement": "Tolerance", "setting": "mice [4]; 3 mg/kg daily, by Day 5", "result": "showed distinct tolerance"},
      {"measurement": "Adaptation to repeated dosing (tail flick latency, words)", "setting": "mice [4]; female mice, especially from day five onwards", "result": "show an adaptation to morphine"},
      {"measurement": "Adaptation to repeated dosing (tail flick latency, words)", "setting": "mice [4]; male mice", "result": "showed adaptation"}
    ]},
    {"smiles": "Oc1ccc2c3c1O[C@H]1[C@H](O)CC[C@@]4(O)[C@@H](C2)N(CC2CC2)CC[C@]314", "note": "[6-β-Naltrexol, 6-β-naltrexol]", "values": [
      {"measurement": "Activity 2", "setting": "PGP1a [1]", "result": 100, "unit": "µM"},
      {"measurement": "Activity 1", "setting": "PGP1a [1]", "result": 0.1, "unit": "nM"}
    ]},
    {"smiles": "C=C1CC[C@@]2(O)[C@H]3Cc4ccc(O)c5c4[C@@]2(CCN3CC2CC2)[C@H]1O5", "note": "[Nalmefene, nalmefene]", "values": [
      {"measurement": "Activity 2", "setting": "PGP1a [1]", "result": 100, "unit": "µM"},
      {"measurement": "Activity 1", "setting": "PGP1a [1]", "result": 0.3, "unit": "nM"},
      {"measurement": "Vanadate-sensitive ATPase Activity", "setting": "PGP1a [2]; 30 μM", "result": 2.3, "unit": "nmol/mg/min"},
      {"measurement": "Vanadate-sensitive ATPase Activity", "setting": "PGP1a [2]; 100 μM", "result": 3.2, "unit": "nmol/mg/min"},
      {"measurement": "Inhibition of the ATPase associated with PGP1a", "setting": "PGP1a [2]", "result": "shown to inhibit"},
      {"measurement": "% Inhibition of Digoxin Transport", "setting": "human PGP; 0.0001 μM test substance", "result": 5.2, "unit": "%"},
      {"measurement": "% Inhibition of Digoxin Transport", "setting": "human PGP; 0.0003 μM test substance", "result": 7.2, "unit": "%"},
      {"measurement": "% Inhibition of Digoxin Transport", "setting": "human PGP; 0.001 μM test substance", "result": 2.8, "unit": "%"},
      {"measurement": "% Inhibition of Digoxin Transport", "setting": "human PGP; 0.003 μM test substance", "result": 5.1, "unit": "%"},
      {"measurement": "% Inhibition of Digoxin Transport", "setting": "human PGP; 0.01 μM test substance", "result": 3.9, "unit": "%"},
      {"measurement": "% Inhibition of Digoxin Transport", "setting": "human PGP; 0.03 μM test substance", "result": "−7.2", "unit": "%"},
      {"measurement": "% Inhibition of Digoxin Transport", "setting": "human PGP; 0.1 μM test substance", "result": "−0.3", "unit": "%"},
      {"measurement": "% Inhibition of Digoxin Transport", "setting": "human PGP; 0.3 μM test substance", "result": "−5.6", "unit": "%"},
      {"measurement": "% Inhibition of Digoxin Transport", "setting": "human PGP; 1 μM test substance", "result": "−2.6", "unit": "%"},
      {"measurement": "Inhibition of digoxin transport", "setting": "human PGP; increasing concentration between 3 and 100 μM", "result": "increasingly inhibited"},
      {"measurement": "Development of tolerance to oxycodone", "setting": "mice [5]; [6]", "result": "did not develop tolerance"}
    ]},
    {"smiles": "Oc1ccc2c3c1O[C@H]1c4[nH]c5c(c4C[C@@]4(O)[C@@H](C2)N(CC2CC2)CC[C@]314)C[C@@]1(O)[C@H]2Cc3ccc(O)c4c3[C@@]1(CCN2CC1CC1)[C@H]5O4", "note": "[nor-BNI, nor-binaltorphimine]", "values": [
      {"measurement": "Development of tolerance to oxycodone", "setting": "mice [5]; female mice, 1 or 5 mg/kg oxycodone with 1 pg/kg, 1 ng/kg or 1 μg/kg naltrexone or 1 pg/kg nor-BNI", "result": "None of the mice developed tolerance"},
      {"measurement": "Development of tolerance to oxycodone", "setting": "mice [5]; [6]", "result": "did not develop tolerance"}
    ]}
  ]
}
